What was measured:
[1] = Drug load (gravimetric, GF-AAS) and encapsulation efficiency of nanoparticles; type: physicochemical; conditions: for Max DL, %: maximum drug load; for Max DL, % / Max EE, %: according to Example 11; for Max EE, %: maximum encapsulation
Method: The polymer composition was varied by the ratio of the PLA or PLGA polymer to PLA-PEG or PLGA-PEG copolymer, as well as the PLA molecular weight (25-109 kDa). […] The oil phase was then slowly added to the continuously stirred aqueous phase containing an emulsifier (such as polysorbate 80 a.k.a. Tween® 80) at 10/90% or 20/80% v/v oil/water ratio and a coarse emulsion was prepared using a rotor-stator homogenizer or an ultrasound bath. The course emulsion was then processed through a high-pressure homogenizer (operated at 5,000 or 10,000 psi) for N=2 or 4 passes to form a nanoemulsion. In process (2) the polymers and the drug were dissolved in an organic solvent miscible with water (such as acetone) and added slowly to a continuously stirred aqueous phase with or without a stabilizer (such as polysorbate 80). In both processes (1) and (2) the nanoemulsion formed was quenched (by 5- or 10-fold dilution with cold (0-5° C.) or room temperature deionized water) to remove the major portion of the organic solvent resulting in hardening of the emulsion droplets and formation of a nanoparticle suspension, which was then concentrated and purified with deionized water containing or not surfactants using tangential flow filtration (500 kDa MWCO, mPES membranes).
The actual drug load was determined gravimetrically by transferring 1 mL of the nanoparticle suspension to a 4 mL glass vial and drying under vacuum on a Rotavapor® to determine the amount of total remaining solids. The drug content was then determined by reconstituting the dried sample in an organic solvent (such as N′N′-dimethylformamide) and measuring the total amount of platinum using graphite furnace atomic adsorption spectroscopy (GF-AAS). Encapsulation efficiency was calculated as the ratio between the actual and the theoretical drug load. The yield was determined based on the ratio between the encapsulated and used compound amounts. In-vitro release was studied by incubating the nanoparticle suspension in phosphate buffered saline (PBS) containing a solubilizer such as 1% hydroxypropyl beta cyclodextrin for 24 h at 37° C. mixed continuously in a water shaking bath. Samples were taken at different time points and spun with an ultracentrifuge at 1,000,000×g to separate the nanoparticles from the dissolution medium. The supernatant was then analyzed using GF-AAS or HPLC to determine the active content as a function of time.

[2] = Mouse PK/PD study, tumor platinum levels by ICP-MS; set-up: species or system nude mice; conditions: in vivo, iv, 4 mg/kg
Method: To examine the ability of compounds to accumulate in tumors, a murine cancer model was used. Animals were inoculated with 5×10^5 H460 […] lung cancer cells via subcutaneous injection to the flank. Tumors were allowed to reach an approximate volume of ˜500 mm^3. Animals were then randomized into treatment groups of 3 animals per time point and were dosed at 4 mg/kg. The 24 hour time point was used as a benchmark across compounds.
Tumors were excised from animals and dissolved in fuming nitric acid (60% w/w) by adding four parts nitric acid to 1 part tumor w/w and heating overnight at 60 degrees Centigrade. The resulting digest was diluted 1:10 in ICP-MS analysis buffer (1% nitric acid, 2% Triton x-100), and directly introduced into the ICP-MS unit by peristaltic pump. The end dilution factor for the samples as introduced to the ICP-MS was 50×.

CC(C)(C)CC(C)(C)NC(=O)[O][Pt]([NH2])([NH2])([Cl])([Cl])[O]C(=O)NC(C)(C)CC(C)(C)C [Compound 29]
Max DL, % [1]: 5.9% | Max EE, % [1]: 59% | encapsulation efficiency (in words) ([1]; statement on Table 4): increased encapsulation efficiency | maximum drug loading (in words) ([1]; statement on Table 4): increased maximum drug loading | platinum levels in the tumor, nanoparticle suspension versus free compound [2]: higher platinum levels in the tumors when the corresponding compound was dosed as a nanoparticle suspension than as a free compound

CCCCCC(=O)[O][Pt]([NH2])([NH2])([Cl])([Cl])[O]C(=O)CCCCC [reference compound]
Max DL, % [1]: 0.55% | Max EE, % [1]: 2.8%
